Assay results published in patent US3974168A, “Tricycle substituted acetones” (Yoshitomi Pharmaceutical Industries, Ltd., priority 1973, dated 1976).

Columns and labels:
[1] = system: stretch symptoms induced by o-phenyl-p-benzoquinone; test: Phenylquinone Method (analgesic action); type: in vivo, dd-strain male mice; details: mice, stretch symptoms over 30 minutes
Protocol: Analgesic Action (Phenylquinone Method)
According to the method of Hendershot et al. (J. Pharmacol. Exptl. Therap., 125, 237 (1957)), to one group of six dd-strain male mice each weighing about 20 g a test solution containing a test compound was orally administered and 1 hour later 0.2 ml/20 g of body weight of 0.02% o-phenyl-p-benzoquinone solution was intraperitoneally injected. The frequency of stretch symptoms thus induced was measured for 30 minutes, and compared with that of a control group, and the inhibition percentage (effect) was calculated. Results: Carrageenin Edema Method Compound Dose (mg/kg) p.o. % inhibition ______________________________________ A 5 50 25 68 B 10 36 25 61 C 25 32 50 63 ______________________________________

Carrageenin Edema = Carrageenin Edema Method (anti-inflammatory action); type: in vivo, Donryu-strain male rats; details: carrageenin paw edema, rats, 2 hours after phlogogen
Protocol: i. Carrageenin Edema Method
According to the method of Winter et al. (Proc. Soc. Exptl. Biol. Med., 111, 544 (1962)), to one group of five Donryu-strain male rats each weighing about 130 g a test solution containing a test compound was administered orally. One hour later 0.05 ml of 1% carrageenin solution as a phlogogenic substance was subcutaneously injected to the paw of the hind leg. And 2 hours after the administration of phlogogen the bulk of the paw was measured in order to obtain the increment percentage over that before administration. The ratio of bulk increment between a control group and a test group was calculated as inhibition percentage.

Ultraviolet Erythema = Ultraviolet Erythema Method (anti-inflammatory action); type: in vivo; details: guinea pigs, 2 hours after irradiation, half dose 1 hour before and after
Protocol: ii. Ultraviolet Erythema Method
Using guinea pigs weighing 250-450 g, a rubber plate with 3 holes of 7 mm in diameter was fitted to the abdomen, hair of which had been removed in advance, and light was given by a mercury lamp (300 W) at the distance of 15 cm for 150 seconds. Two hours later the degree of erythema formation was marked according to the method of Winder et al. (Arch. Intern. Pharmacodyn., 116, 261 (1958)) and the efficacy rate was calculated, based on the criterion that 1.5 or less of total marks be effective. Half amount of the test solution was orally given 1 hour before and after the irradiation.

Structure (SMILES) | % inhibition ([1]; 5 mg/kg p.o.) [%] | % inhibition ([1]; 10 mg/kg p.o.) [%] | % inhibition (Carrageenin Edema; 5 mg/kg p.o.) [%] | % inhibition (Carrageenin Edema; 25 mg/kg p.o.) [%] | Animals with score of 1.5 or less / Total animals (Ultraviolet Erythema; 1 mg/kg p.o.) | Animals with score of 1.5 or less / Total animals (Ultraviolet Erythema; 2.5 mg/kg p.o.) | % inhibition ([1]; 0.5 mg/kg p.o.) [%] | % inhibition ([1]; 1 mg/kg p.o.) [%] | % inhibition (Carrageenin Edema; 10 mg/kg p.o.) [%] | Animals with score of 1.5 or less / Total animals (Ultraviolet Erythema; 100 mg/kg p.o.) | Animals with score of 1.5 or less / Total animals (Ultraviolet Erythema; 250 mg/kg p.o.) | % inhibition ([1]; 25 mg/kg p.o.) [%] | % inhibition ([1]; 50 mg/kg p.o.) [%] | % inhibition (Carrageenin Edema; 50 mg/kg p.o.) [%] | Animals with score of 1.5 or less / Total animals (Ultraviolet Erythema; 5 mg/kg p.o.)
CC(=O)C(C)c1ccc2c(c1)Cc1cccnc1O2 (stereo not drawn) [A, 3-(5h-[1]benzopyrano[2,3-b]pyridin-7-yl)-2-butanone] | 48.7 | 73.5 | 50 | 68 | 3/10 | 6/10 |  |  |  |  |  |  |  |  | 
CC(=O)C(C)c1ccc2c(c1)Cc1ccc(C)nc1O2 (stereo not drawn) [B, 3-(2-methyl-5H-[1]benzopyrano[2,3-b]pyridin-7-yl)-2-butanone] |  |  |  | 61 |  |  | 24.0 | 63.4 | 36 | 2/5 | 4/5 |  |  |  | 
CCC(=O)C(C)c1ccc2c(c1)Cc1cccnc1O2 (stereo not drawn) [C, 2-(5h-[1]benzopyrano[2,3-b]pyridin-7-yl)-3-pentanone] |  |  |  | 32 | 2/5 |  |  |  |  |  |  | 41.6 | 75.2 | 63 | 3/5
